In the assay the test system is lung cancer cell lines (A549 and chemotherapy-resistant/metastatic H460). Briefly: XTT proliferation assay, lung cancer cells. It counts as cell-based. The settings on record: DT 5, 10, 20 μM; gemcitabine hydrochloride and etoposide 10, 20 μM; 1-2 days; regardless of the dosage; also H460; FIG. 2. The method, then: The prostate cancer cells were plated at a density of 10^3 or 3×10^3 per well, in a 96-well plate, in a medium containing 10% Fetal bovine serum (FBS) (Gibco®, commercially available from Life Technologies, USA). Once the prostate cancer cells were attached to the culture dish, the 10% FBS medium was replaced with a second 10% FBS medium and each of the prostate cancer cell line was treated with 1, 5, and 10 μM of DT respectively for 1-2 days. The absorbance was measured using XTT assay kit (commercially available from Roche, Switzerland) at 492 nm using an ELISA reader (Bio-Rad Laboratories, USA). An in vitro evaluation of the effect of DT, gemcitabine (a chemotherapeutic agent) and etoposide (a chemotherapeutic agent) on the lung cancer cells was performed. The lung cancer cell lines, chemotherapy-resistant/metastatic H460 lung cancer cells (with pleural metastasis) and A549 lung cancer cells, were purchased from Bioresource Collection and Research Center, Taiwan. […] The absorbance was measured using XTT assay kit at 492 nm using an ELISA reader.
In general terms: Tetrazolium dyes change colour on reduction, which living cells bring about.

As for `Nc1ccn([C@@H]2O[C@H](CO)[C@@H](O)C2(F)F)c(=O)n1` [gemcitabine, reference compound], the “inhibition of lung cancer proliferation, DT compared with gemcitabine and etoposide” value was “DT is more effective than gemcitabine and etoposide”.
`COc1cc([C@@H]2c3cc4c(cc3[C@@H](O[C@@H]3O[C@@H]5CO[C@@H](C)O[C@H]5[C@H](O)[C@H]3O)[C@H]3COC(=O)[C@H]23)OCO4)cc(OC)c1O` [etoposide, reference compound]: the “inhibition of lung cancer proliferation, DT compared with gemcitabine and etoposide” value was “DT is more effective than gemcitabine and etoposide”.

Values taken from patent US10426755B2, “Methods for inhibiting cancer cells” (Chang Gung Memorial Hospital, Chiayi, priority 2015, dated 2019).
